In brackets after ≈: the same amount, converted by molar mass. Activity calls are given as the source filed them. The rule behind the calls is not given here.
Key:
Escherichia coli = experiment: Antibacterial activity against Escherichia coli ATCC 25922 assessed as bacterial growth inhibition incubated for 16 to 18 hrs by broth microdilution method; type: functional; conditions: time 16-18 hrs
Enterococcus [1] = experiment: Antibacterial activity against Enterococcus NR 31884 assessed as bacterial growth inhibition incubated for 16 to 18 hrs by broth microdilution method; type: functional; conditions: time 16-18 hrs
Staphylococcus aureus [2] = experiment: Antibiofilm activity against Staphylococcus aureus ATCC 29213 assessed as reduction in preformed bacterial biofilm at 1XMIC incubated for 24 hrs by crystal violet staining based microtiter plate reader assay; type: functional
Staphylococcus aureus [3] = experiment: Antibacterial activity against Staphylococcus aureus ATCC 29213 assessed as bacterial growth inhibition in presence of linezolid incubated for 24 hrs by checkerboard assay; type: functional
Staphylococcus aureus [4] = experiment: Antibacterial activity against Staphylococcus aureus ATCC 29213 assessed as reduction in bacterial growth at sub-MIC incubated for more than 40 days; type: functional, organism-based; conditions: time day >40
Staphylococcus aureus [5] = experiment: Antibacterial activity against Staphylococcus aureus ATCC 29213 assessed as time for post-antibiotic effect at 10XMIC incubated for 1 hr followed by drug wash-out and measured every single 1 hr; type: functional
Staphylococcus aureus [6] = experiment: Antibacterial activity against methicillin-resistant Staphylococcus aureus NRS 10119 assessed as bacterial growth inhibition incubated for 16 to 18 hrs by broth microdilution method; type: functional; conditions: time 16-18 hrs
Staphylococcus aureus [7] = experiment: Antibacterial activity against Staphylococcus aureus ATCC 29213 assessed as fractional inhibitory concentration in presence of levofloxacin incubated for 24 hrs by checkerboard assay; type: functional
Staphylococcus aureus [8] = experiment: Antibacterial activity against Staphylococcus aureus ATCC 29213 assessed as bacterial growth inhibition in presence of minocycline incubated for 24 hrs by checkerboard assay; type: functional
Enterococcus [9] = experiment: Antibacterial activity against vancomycin-resistant Enterococcus NR 31909 assessed as bacterial growth inhibition incubated for 16 to 18 hrs by broth microdilution method; type: functional; conditions: time 16-18 hrs
Staphylococcus aureus [10] = experiment: Antibacterial activity against Staphylococcus aureus ATCC 29213 assessed as time for increase by 1 log10CFU at 1XMIC incubated for 1 hr followed by drug wash-out and measured every single 1 hr; type: functional
Staphylococcus aureus [11] = experiment: Antibacterial activity against vancomycin-resistant Staphylococcus aureus VRS1 assessed as bacterial growth inhibition incubated for 16 to 18 hrs by broth microdilution method; type: functional; conditions: time 16-18 hrs
Staphylococcus aureus [12] = experiment: Antibacterial activity against vancomycin-resistant Staphylococcus aureus VRS4 assessed as bacterial growth inhibition incubated for 16 to 18 hrs by broth microdilution method; type: functional; conditions: time 16-18 hrs
Enterococcus [13] = experiment: Antibacterial activity against vancomycin-susceptible Enterococcus NR 31888 assessed as bacterial growth inhibition incubated for 16 to 18 hrs by broth microdilution method; type: functional; conditions: time 16-18 hrs
Staphylococcus aureus [14] = experiment: Antibacterial activity against Staphylococcus aureus ATCC 29213 assessed as bacterial growth inhibition in presence of daptomycin incubated for 24 hrs by checkerboard assay; type: functional
Staphylococcus aureus [15] = experiment: microbe, parasite or virus in culture; conditions: ATCC 29213
Description: Antibacterial activity against Staphylococcus aureus ATCC 29213 assessed as bacterial growth inhibition incubated for 16 to 18 hrs by broth microdilution method

Staphylococcus aureus [16] = experiment: Antibacterial activity against methicillin-resistant Staphylococcus aureus NRS 10186 assessed as bacterial growth inhibition incubated for 16 to 18 hrs by broth microdilution method; type: functional; conditions: time 16-18 hrs
Staphylococcus aureus [17] = experiment: Antibacterial activity against Staphylococcus aureus ATCC 29213 assessed as fractional inhibitory concentration in presence of meropenem incubated for 24 hrs by checkerboard assay; type: functional
Acinetobacter baumannii [18] = experiment: Antibacterial activity against Acinetobacter baumannii BAA-1605 ssessed as bacterial growth inhibition in presence of outermembrane permeabilizer, PMBN incubated for 16 to 18 hrs by broth microdilution method; type: functional; conditions: time 16-18 hrs
Staphylococcus aureus [19] = experiment: Antibacterial activity against Staphylococcus aureus ATCC 29213 assessed as bacterial growth inhibition in presence of meropenem incubated for 24 hrs by checkerboard assay; type: functional
Staphylococcus aureus [20] = experiment: Antibacterial activity against Staphylococcus aureus ATCC 29213 assessed as bacterial growth inhibition in presence of levofloxacin incubated for 24 hrs by checkerboard assay; type: functional
Staphylococcus aureus [21] = experiment: Antibacterial activity against Staphylococcus aureus ATCC 29213 assessed as fractional inhibitory concentration in presence of minocycline incubated for 24 hrs by checkerboard assay; type: functional
[22] = Cytotoxicity against African green monkey Vero cells incubated for 72 hrs by MTT assay; type: cell-based; conditions: chlorocebus sabaeus
Staphylococcus aureus [23] = experiment: Synergistic bactericidal activity against Staphylococcus aureus ATCC 29213 assessed as reduction in bacterial load at 1X MIC preincubated for 6 hrs in presence of gentamycin followed by subculturing on TSA plate for 18 to 20 hrs by time-kill assay; type: functional; conditions: time 24-26 hrs
Staphylococcus aureus [24] = experiment: Antibacterial activity against methicillin-resistant Staphylococcus aureus NRS 10192 assessed as bacterial growth inhibition incubated for 16 to 18 hrs by broth microdilution method; type: functional; conditions: time 16-18 hrs
Staphylococcus aureus [25] = experiment: Antibacterial activity against methicillin-resistant Staphylococcus aureus NRS 10129 assessed as bacterial growth inhibition incubated for 16 to 18 hrs by broth microdilution method; type: functional; conditions: time 16-18 hrs
Pseudomonas aeruginosa = experiment: Antibacterial activity against Pseudomonas aeruginosa ATCC 27853 assessed as bacterial growth inhibition incubated for 16 to 18 hrs by broth microdilution method; type: functional; conditions: time 16-18 hrs
Staphylococcus aureus [26] = experiment: Antibacterial activity against Staphylococcus aureus ATCC 29213 assessed as fractional inhibitory concentration in presence of ceftazidime incubated for 24 hrs by checkerboard assay; type: functional
Staphylococcus aureus [27] = experiment: Antibacterial activity against methicillin-resistant Staphylococcus aureus NRS 10100 assessed as bacterial growth inhibition incubated for 16 to 18 hrs by broth microdilution method; type: functional; conditions: time 16-18 hrs
Staphylococcus aureus [28] = experiment: Antibacterial activity against Staphylococcus aureus ATCC 29213 assessed as bacterial growth inhibition in presence of ceftazidime incubated for 24 hrs by checkerboard assay; type: functional
Staphylococcus aureus [29] = experiment: Antibacterial activity against methicillin-resistant Staphylococcus aureus NRS 10191 assessed as bacterial growth inhibition incubated for 16 to 18 hrs by broth microdilution method; type: functional; conditions: time 16-18 hrs
Staphylococcus aureus [30] = experiment: Antibacterial activity against Staphylococcus aureus ATCC 29213 assessed as bacterial growth inhibition in presence of gentamycin incubated for 24 hrs by checkerboard assay; type: functional
Enterococcus [31] = experiment: Antibacterial activity against vancomycin-susceptible Enterococcus NR 31885 assessed as bacterial growth inhibition incubated for 16 to 18 hrs by broth microdilution method; type: functional; conditions: time 16-18 hrs
Acinetobacter baumannii [32] = experiment: Antibacterial activity against Acinetobacter baumannii BAA 1605 assessed as bacterial growth inhibition incubated for 16 to 18 hrs by broth microdilution method; type: functional; conditions: time 16-18 hrs
Staphylococcus aureus [33] = experiment: Bactericidal activity against Staphylococcus aureus ATCC 29213 assessed as reduction in bacterial load at 1X MIC preincubated for 6 hrs followed by subculturing on TSA plate for 18 to 20 hrs by time-kill assay; type: functional; conditions: time 24-26 hrs
Staphylococcus aureus [34] = experiment: Antibacterial activity against Staphylococcus aureus ATCC 29213 assessed as bacterial growth inhibition in presence of rifampicin incubated for 24 hrs by checkerboard assay; type: functional
Staphylococcus aureus [35] = experiment: Antibacterial activity against Staphylococcus aureus ATCC 29213 assessed as fractional inhibitory concentration in presence of linezolid incubated for 24 hrs by checkerboard assay; type: functional
Staphylococcus aureus [36] = experiment: Antibacterial activity against methicillin-resistant Staphylococcus aureus NRS 10194 assessed as bacterial growth inhibition incubated for 16 to 18 hrs by broth microdilution method; type: functional; conditions: time 16-18 hrs
Staphylococcus aureus [37] = experiment: Antibacterial activity against Staphylococcus aureus ATCC 29213 assessed as bacterial growth inhibition in presence of vancomycin incubated for 24 hrs by checkerboard assay; type: functional
Enterococcus [38] = experiment: Antibacterial activity against vancomycin-susceptible Enterococcus NR 31887 assessed as bacterial growth inhibition incubated for 16 to 18 hrs by broth microdilution method; type: functional; conditions: time 16-18 hrs

In the case of CC(C)=CCc1c(O)cc2oc(-c3ccc(O)cc3O)c(CC=C(C)C)c(=O)c2c1O [CUDRAFLAVONE C], the MIC (Escherichia coli) is reported as > 64 µg/mL, the MIC (Enterococcus [1]) is reported as 4 µg/mL (≈ 9.47 µM) and the “inhibition (INH)” value (Staphylococcus aureus [2]) is reported as 8%. For the same compound, the MIC (Staphylococcus aureus [3]) was 2 µg/mL, the Activity (Staphylococcus aureus [4]) was “Active” and the Time (Staphylococcus aureus [5]) was >22 h. For the same compound, the MIC (Staphylococcus aureus [6]) was 4 µg/mL (≈ 9.47 µM), the FIC (Staphylococcus aureus [7]) was 1.5 and the MIC (Staphylococcus aureus [8]) was 2 µg/mL. It also gave an MIC (Enterococcus [9]) of 4 µg/mL (≈ 9.47 µM), a Time (Staphylococcus aureus [10]) of 4 h and an MIC (Staphylococcus aureus [11]) of 4 µg/mL (≈ 9.47 µM). It also gave an MIC (Staphylococcus aureus [12]) of 4 µg/mL (≈ 9.47 µM), an MIC (Enterococcus [13]) of 4 µg/mL (≈ 9.47 µM) and an MIC (Staphylococcus aureus [14]) of 2 µg/mL. For the same compound, the MIC (Staphylococcus aureus [15]) was 2 µg/mL (≈ 4.73 µM), the MIC (Staphylococcus aureus [16]) was 4 µg/mL (≈ 9.47 µM) and the FIC (Staphylococcus aureus [17]) was 1.5. It also gave an MIC (Acinetobacter baumannii [18]) of 4 µg/mL, an MIC (Staphylococcus aureus [19]) of 2 µg/mL and an MIC (Staphylococcus aureus [20]) of 2 µg/mL. For the same compound, the FIC (Staphylococcus aureus [21]) was 1.5, the CC50 at 72 h [22] was 50 µg/mL (≈ 118 µM) and the Activity (Staphylococcus aureus [23]) was 9 log10CFU/ml. The MIC (Staphylococcus aureus [24]) was 4 µg/mL (≈ 9.47 µM), the MIC (Staphylococcus aureus [25]) was 4 µg/mL (≈ 9.47 µM) and the MIC (Pseudomonas aeruginosa) was > 64 µg/mL. The FIC (Staphylococcus aureus [26]) was 1.5, the MIC (Staphylococcus aureus [27]) was 4 µg/mL (≈ 9.47 µM) and the MIC (Staphylococcus aureus [28]) was 2 µg/mL. The MIC (Staphylococcus aureus [29]) was 4 µg/mL (≈ 9.47 µM), the MIC (Staphylococcus aureus [30]) was 0.06 µg/mL and the MIC (Enterococcus [31]) was 4 µg/mL (≈ 9.47 µM). For the same compound, the MIC (Acinetobacter baumannii [32]) was > 64 µg/mL, the Activity (Staphylococcus aureus [33]) was 4 log10CFU/ml and the MIC (Staphylococcus aureus [34]) was 2 µg/mL. For the same compound, the FIC (Staphylococcus aureus [35]) was 1.5, the MIC (Staphylococcus aureus [36]) was 4 µg/mL (≈ 9.47 µM) and the MIC (Staphylococcus aureus [37]) was 2 µg/mL. The MIC (Enterococcus [38]) was 4 µg/mL (≈ 9.47 µM).
